Reference: patent publication US6359133B2, “Halogen pyrimidinyl aryl (thio) ethers as pesticides” (Bayer Aktiengesellschaft, priority 1996, dated 2002)

What was measured:
[1] = test system: Erysiphe graminis f.sp. hordei; assay: Erysiphe test (barley)/protective; type: in vivo; settings: protective, 250 g/ha, evaluation 7 days after inoculation, vs untreated control
Description: Erysiphe Test (barley)/Protective Solvent: 10 parts by weight of N-methyl-pyrrolidone. Emulsifier: 0.6 part by weight of alkylaryl polyglycol ether. To produce a suitable preparation of active compound, 1 part by weight of active compound is mixed with the stated amounts of solvent and emulsifier, and the concentrate is diluted with water to the desired concentration. To test for protective activity, young plants are sprayed with the preparation of active compound at the stated application rate. After the spray coating has dried on, the plants are dusted with spores of Erysiphe graminis f.sp. hordei.

Pyriculaia oryzae = type: in vivo; settings: rice, protective, 750 g/ha, evaluation 4 days after inoculation, vs untreated control
[2] = logP determination by HPLC (EEC Directive 79/831 Annex V. A8); settings: gradient method, acetonitrile/0.1% aqueous phosphoric acid

Row | SMILES | efficacy (Pyriculaia oryzae) [%] | other results
1 | C=CCOc1ccccc1Oc1ncnc(Oc2ccccc2C(=NOC)C(=O)NC)c1F [Example 8] | 80 | efficacy [1]: 100%
2 | CNC(=O)C(=NOC)c1ccccc1Oc1ncnc(Oc2c(C)cccc2C)c1F [Example 21] | 80 | 
3 | CNC(=O)C(=NOC)c1ccccc1Oc1ncnc(Oc2cccc(Cl)c2C)c1F [Example 24] | 80 | 
4 | CON=C(C(N)=O)c1ccccc1Oc1ncnc(Oc2ccccc2Cl)c1F [Example 10] | 80 | 
5 | CNC(=O)C(=NOC)c1ccccc1Oc1ncnc(Oc2ccc(Cl)cc2Cl)c1F [Example 15] |  | logP [2]: 3.61
6 | CNC(=O)C(=NOC)c1ccccc1Oc1ncnc(Oc2ccccc2C#N)c1F [Example 4] | 80 | 
7 | CO/N=C(/C(N)=O)c1ccccc1O [Example II-1, 2-(2-hydroxy-phenyl)-2-methoxyimino-acetamide] |  | chromatographic logP (physchem): 0.83
8 | CCC(=O)Oc1ccccc1Oc1ncnc(Oc2ccccc2C(=NOC)C(=O)NC)c1F [Example 9] | 80 | 
9 | CNC(=O)C(=NOC)c1ccccc1Oc1ncnc(Oc2cc(C)ccc2C)c1F [Example 20] | 80 | 
10 | CNC(=O)/C(=N/OC)c1ccccc1Oc1ncnc(Oc2ccccc2Cl)c1F [Example 1, 2-{2-[6-(2-chlorophenoxy)-5-fluoro-pyrimidine4-yloxy]-phenyl}-2-methoxyimino-N-methylacetamide] | 80 | 
11 | CNC(=O)/C(=N/OC)c1ccccc1Oc1ncnc(Oc2ccccc2C)c1F [Example 2, 2-[2-(5-fluoro-6-o-tolyloxy-pyrimidin-4-yloxy)-phenyl]-2-methoxyimino-N-methyl-acetamide] | 80 | efficacy [1]: 100%; chromatographic logP (physchem): 3.04
12 | CNC(=O)C(=NOC)c1ccccc1Oc1ncnc(Oc2ccc(C)cc2Cl)c1F [Example 22] | 80 | 
